What all share (type): cell-based
One experiment has as its target hGLP-1R (Homo sapiens, UniProt P43220). Briefly: Functional cAMP formation (HTRF) in HEK-293 clonal cells expressing hGLP-1R, 0.1% bovine casein, without or with 1.0% human serum albumin. Further details: expressed in transfected cells. The settings on record: for EC50: cAMP, 0.1% bovine casein (no human serum albumin), geometric mean. Summed up: (§1)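 Cells were stimulated with peptide for 30 min at 37° C, then lysed in buffer carrying cAMP-d2 and anti-cAMP Eu3+-cryptate for a competitive HTRF read after at least 60 min at room temperature. The 665/620 nm ratio was converted to nM cAMP against a standard curve.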
A general note: cAMP levels reflect the balance of adenylyl cyclase and phosphodiesterase activity.

In another experiment the target is T1, hGCGR (Homo sapiens, UniProt P47871).
T1 construct: expressed in transfected cells
T1 sequence (P47871 26-477): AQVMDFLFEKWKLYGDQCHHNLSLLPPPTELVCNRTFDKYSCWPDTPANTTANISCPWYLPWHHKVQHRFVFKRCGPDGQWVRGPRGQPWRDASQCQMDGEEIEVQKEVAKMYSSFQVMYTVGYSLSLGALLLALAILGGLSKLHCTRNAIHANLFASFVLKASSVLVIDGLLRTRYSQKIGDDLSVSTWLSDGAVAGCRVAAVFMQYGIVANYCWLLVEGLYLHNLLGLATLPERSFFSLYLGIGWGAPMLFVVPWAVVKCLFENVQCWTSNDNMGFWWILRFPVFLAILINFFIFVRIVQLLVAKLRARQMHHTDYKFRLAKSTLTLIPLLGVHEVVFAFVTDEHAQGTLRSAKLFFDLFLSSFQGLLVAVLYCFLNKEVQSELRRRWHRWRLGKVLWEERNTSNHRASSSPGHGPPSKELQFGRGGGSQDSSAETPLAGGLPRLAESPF
Briefly: Functional cAMP formation (HTRF) in HEK-293 clonal cells expressing hGCGR, 0.1% bovine casein, without or with 1.0% human serum albumin. Conditions: cAMP. Summed up:
as §1

The next experiment deals with T2, hGIPR (Homo sapiens, UniProt P48546).
T2 construct: expressed in transfected cells
T2 sequence (P48546 22-466): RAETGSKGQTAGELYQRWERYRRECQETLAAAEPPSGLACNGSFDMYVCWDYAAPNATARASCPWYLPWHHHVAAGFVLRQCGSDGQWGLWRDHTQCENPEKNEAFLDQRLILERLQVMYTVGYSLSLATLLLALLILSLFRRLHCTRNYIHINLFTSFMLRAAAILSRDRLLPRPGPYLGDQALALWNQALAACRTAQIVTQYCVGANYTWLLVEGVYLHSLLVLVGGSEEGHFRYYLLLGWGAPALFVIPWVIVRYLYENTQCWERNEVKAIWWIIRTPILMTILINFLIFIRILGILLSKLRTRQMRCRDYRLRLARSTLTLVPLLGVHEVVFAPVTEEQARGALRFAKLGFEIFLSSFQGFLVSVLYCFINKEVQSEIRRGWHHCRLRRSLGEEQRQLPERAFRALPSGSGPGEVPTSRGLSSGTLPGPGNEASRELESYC
Briefly: Functional cAMP formation (HTRF) in HEK-293 clonal cells expressing hGIPR, 0.1% bovine casein, without or with 1.0% human serum albumin. Conditions: for EC50: cAMP, 0.1% bovine casein (no human serum albumin), geometric mean. Summed up:
as §1

The mark [1] stands for this setting: HEK293, read-out: hGLP-1R Emax, % ± SEM, cAMP, 37° C., 0.1% bovine casein and 1.0% human serum albumin, percent of maximal response to GLP-1(7-36)NH2.
The mark [2] stands for this setting: HEK293, read-out: hGLP-1R Emax, % ± SEM, cAMP, 37° C., 0.1% bovine casein, percent of maximal response to GLP-1(7-36)NH2, arithmetic mean.
Setting [3] is: hGLP-1R EC50, nM (SEM, n), 37° C.
Setting [4] is: hGCGR EC50, nM (SEM, n), 37° C., 0.1% bovine casein (no human serum albumin), geometric mean.
Setting [5] is: hGCGR EC50, nM (SEM, n), 37° C., 0.1% bovine casein and 1.0% human serum albumin, geometric mean (SEM, n).
Setting [6] is: HEK293, read-out: hGIPR Emax, % ± SEM, cAMP, 37° C., 0.1% bovine casein and 1.0% human serum albumin, percent of maximal response to GIP(1-42)NH2.

Like-named read-outs stand apart in the source and are kept apart here. Some results are limits rather than exact numbers.

hGLP-1R, sequence (P43220 24-463): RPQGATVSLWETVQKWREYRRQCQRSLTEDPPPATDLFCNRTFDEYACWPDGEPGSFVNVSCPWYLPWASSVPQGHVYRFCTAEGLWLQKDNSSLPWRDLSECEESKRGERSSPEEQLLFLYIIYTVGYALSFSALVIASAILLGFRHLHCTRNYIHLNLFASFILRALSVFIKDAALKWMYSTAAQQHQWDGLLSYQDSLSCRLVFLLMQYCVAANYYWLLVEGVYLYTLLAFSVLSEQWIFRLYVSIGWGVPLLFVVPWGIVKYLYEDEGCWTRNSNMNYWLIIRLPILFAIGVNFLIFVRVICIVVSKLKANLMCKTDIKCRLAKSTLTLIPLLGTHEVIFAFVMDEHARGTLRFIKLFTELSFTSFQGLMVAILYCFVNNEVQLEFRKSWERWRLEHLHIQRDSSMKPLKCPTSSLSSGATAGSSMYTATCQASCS

Turning to `CC[C@H](C)[C@H](NC(=O)[C@H](CCCN)NC(=O)[C@H](CC(=O)O)NC(=O)[C@H](CC(C)C)NC(=O)[C@](C)(CC(C)C)NC(=O)[C@@H](NC(=O)[C@H](CO)NC(=O)[C@H](CCc1ccc(O)cc1)NC(=O)[C@H](CC(=O)O)NC(=O)[C@H](CO)NC(=O)[C@@H](NC(=O)[C@](C)(Cc1ccccc1F)NC(=O)[C@@H](NC(=O)CNC(=O)[C@H](CCC(=O)O)NC(=O)C(C)(C)NC(=O)[C@@H](N)Cc1ccc(O)cc1)[C@@H](C)O)[C@@H](C)O)[C@@H](C)CC)C(=O)N[C@@H](C)C(=O)N[C@@H](CCC(N)=O)C(=O)NC(C)(C)C(=O)N[C@@H](CCCCNC(=O)COCCOCCNC(=O)COCCOCCNC(=O)CC[C@H](NC(=O)CCCCCCCCCOc1ccc(C(=O)O)cc1)C(=O)O)C(=O)N[C@@H](Cc1ccccc1)C(=O)N[C@H](C(=O)N[C@H](CCC(=O)O)C(=O)N[C@@](C)(Cc1ccc(O)cc1)C(=O)N[C@@H](CC(C)C)C(=O)N[C@H](C(=O)N[C@@H](CCCCNC(=O)COCCOCCNC(=O)COCCOCCNC(=O)CC[C@H](NC(=O)CCCCCCCCCOc1ccc(C(=O)O)cc1)C(=O)O)C(=O)NCC(=O)NCC(=O)N1CCC[C@H]1C(=O)N[C@@H](CO)C(=O)N[C@@H](CO)C(=O)NCC(=O)N[C@@H](C)C(=O)N1CCC[C@H]1C(=O)N1CCC[C@H]1C(=O)N1CCC[C@H]1C(=O)N[C@@H](CO)C(N)=O)[C@@H](C)CC)[C@@H](C)CC` [Example 332], the Emax (commonly the size of the effect at its maximum, as opposed to the concentration needed) on hGLP-1R (setting [1]) worked out at 116%; at hGLP-1R (setting [2]), 114%; on hGIPR (setting [6]), 96.5%. Moreover, the EC50 – broadly, the concentration needed to bring the measured effect to its halfway point – at hGLP-1R (setting [3]) is 0.263 nM; on hGCGR (setting [4]), over 9950 nM; at hGCGR (setting [5]) it was over 9950 nM.

With `CC[C@H](C)[C@H](NC(=O)[C@H](CCCN)NC(=O)[C@H](CC(=O)O)NC(=O)[C@H](CC(C)C)NC(=O)[C@](C)(CC(C)C)NC(=O)[C@@H](NC(=O)C(C)(C)NC(=O)[C@H](Cc1ccncc1)NC(=O)[C@H](CC(=O)O)NC(=O)[C@H](CO)NC(=O)[C@@H](NC(=O)[C@](C)(Cc1ccccc1F)NC(=O)[C@@H](NC(=O)CNC(=O)[C@H](CCC(=O)O)NC(=O)C(C)(C)NC(=O)[C@@H](N)Cc1ccc(O)cc1)[C@@H](C)O)[C@@H](C)O)[C@@H](C)CC)C(=O)N[C@@H](C)C(=O)N[C@@H](CCC(N)=O)C(=O)NC(C)(C)C(=O)N[C@@H](CCC(=O)O)C(=O)N[C@@H](Cc1ccccc1)C(=O)N[C@H](C(=O)N[C@@H](CCCCNC(=O)COCCOCCNC(=O)COCCOCCNC(=O)COCCOCCNC(=O)CC[C@H](NC(=O)CCCCCCCCCOc1ccc(C(=O)O)cc1)C(=O)O)C(=O)N[C@@](C)(Cc1ccc(O)cc1)C(=O)N[C@@H](CC(C)C)C(=O)N[C@H](C(=O)N[C@@H](CCCCNC(=O)COCCOCCNC(=O)COCCOCCNC(=O)COCCOCCNC(=O)CC[C@H](NC(=O)CCCCCCCCCOc1ccc(C(=O)O)cc1)C(=O)O)C(=O)NCC(=O)NCC(=O)N1CCC[C@H]1C(=O)N[C@@H](CO)C(=O)N[C@@H](CO)C(=O)NCC(=O)N[C@@H](C)C(=O)N1CCC[C@H]1C(=O)N1CCC[C@H]1C(=O)N1CCC[C@H]1C(=O)N[C@@H](CO)C(N)=O)[C@@H](C)CC)[C@@H](C)CC` [Example 345], the maximal effect (Emax) at hGLP-1R (setting [1]) worked out at 110%; on hGLP-1R (setting [2]) it was 105%; at hGIPR (setting [6]), 86.8%; on hGIPR (HEK293, read-out: hGIPR Emax, % ± SEM, cAMP, 37° C., 0.1% bovine casein, percent of maximal response to GIP(1-42)NH2, arithmetic mean), 98.9%. Further, the EC50 at hGLP-1R (setting [3]) is 0.285 nM; on hGCGR (setting [4]), over 9950 nM; at hGCGR (setting [5]) it was over 9950 nM; at hGIPR (hGIPR EC50, nM (SEM, n), 37° C.), 0.0147 nM.

On to `CCCCCCCCCCCC(=O)N[C@@H](CCC(=O)NCCOCCOCC(=O)NCCOCCOCC(=O)NCCCC[C@H](NC(=O)CNC(=O)CNC(=O)[C@H](CCC(=O)O)NC(=O)[C@@H](NC(=O)[C@H](CC(C)C)NC(=O)[C@](C)(Cc1ccc(O)cc1)NC(=O)[C@@H](CCC(=O)O)NC(=O)[C@@H](NC(=O)[C@H](Cc1ccccc1)NC(=O)[C@H](CCC(=O)O)NC(=O)C(C)(C)NC(=O)[C@H](CCC(N)=O)NC(=O)[C@H](C)NC(=O)[C@H](CCCCNC(=O)COCCOCCNC(=O)COCCOCCNC(=O)CC[C@H](NC(=O)CCCCCCCCCCC)C(=O)O)NC(=O)[C@H](CCCN)NC(=O)[C@H](CC(=O)O)NC(=O)[C@H](CC(C)C)NC(=O)[C@](C)(CC(C)C)NC(=O)[C@@H](NC(=O)C(C)(C)NC(=O)[C@@H](NC(=O)[C@H](CC(=O)O)NC(=O)[C@H](CO)NC(=O)[C@@H](NC(=O)[C@](C)(Cc1ccccc1)NC(=O)[C@@H](NC(=O)CNC(=O)[C@H](CCC(=O)O)NC(=O)C(C)(C)NC(=O)[C@@H](N)Cc1ccc(O)cc1)[C@@H](C)O)[C@@H](C)O)C(C)C)[C@@H](C)CC)[C@@H](C)CC)[C@@H](C)CC)C(=O)N[C@@H](CO)C(=O)N[C@@H](CO)C(=O)NCC(=O)N[C@@H](C)C(=O)N1CCC[C@H]1C(=O)N1CCC[C@H]1C(=O)N1CCC[C@H]1C(=O)N[C@@H](CO)C(N)=O)C(=O)O` [Example 176], for which the Emax amounted to 98.9% at hGLP-1R (HEK293, percent of maximal response to GLP-1(7-36)NH2, 37° C., 0.1% bovine casein, arithmetic mean, read-out: hGLP-1R Emax, % ± SEM) and 89.3% on hGIPR (HEK293, percent of maximal response to GIP(1-42)NH2, 37° C., 0.1% bovine casein, arithmetic mean, read-out: hGIPR Emax, % ± SEM). Further, the EC50 at hGCGR (incubated at 37° C., 0.1% bovine casein (no human serum albumin), geometric mean, read-out: hGCGR EC50, nM (SEM, n)) was over 9950 nM; on hGIPR (incubated at 37° C., read-out: hGIPR EC50, nM (SEM, n)) it was 0.0485 nM.

As for `CCCCCCCCCCCC(=O)N[C@@H](CCC(=O)NCCOCCOCC(=O)NCCOCCOCC(=O)NCCCC[C@H](NC(=O)[C@H](CO)NC(=O)[C@@H]1CCCN1C(=O)[C@@H]1CCCN1C(=O)[C@@H]1CCCN1C(=O)[C@H](C)NC(=O)CNC(=O)[C@H](CO)NC(=O)[C@H](CO)NC(=O)[C@@H]1CCCN1C(=O)CNC(=O)CNC(=O)[C@H](CCC(=O)O)NC(=O)[C@@H](NC(=O)[C@H](CC(C)C)NC(=O)[C@](C)(Cc1ccc(O)cc1)NC(=O)[C@@H](CCC(=O)O)NC(=O)[C@@H](NC(=O)[C@H](Cc1ccccc1)NC(=O)[C@H](Cc1ccncc1)NC(=O)C(C)(C)NC(=O)[C@H](CCC(N)=O)NC(=O)[C@H](C)NC(=O)[C@H](CCCCNC(=O)COCCOCCNC(=O)COCCOCCNC(=O)CC[C@H](NC(=O)CCCCCCCCCCC)C(=O)O)NC(=O)[C@H](CCCN)NC(=O)[C@H](CC(=O)O)NC(=O)[C@H](CC(C)C)NC(=O)[C@](C)(CC(C)C)NC(=O)[C@@H](NC(=O)C(C)(C)NC(=O)[C@H](Cc1ccncc1)NC(=O)[C@H](CC(=O)O)NC(=O)[C@H](CO)NC(=O)[C@@H](NC(=O)[C@](C)(Cc1ccccc1F)NC(=O)[C@@H](NC(=O)CNC(=O)[C@H](CCC(=O)O)NC(=O)C(C)(C)NC(=O)[C@@H](N)Cc1ccc(O)cc1)[C@@H](C)O)[C@@H](C)O)[C@@H](C)CC)[C@@H](C)CC)[C@@H](C)CC)C(N)=O)C(=O)O` [Example 420], the Emax was determined as 109% on hGLP-1R (HEK293, cAMP, 37° C., 0.1% bovine casein and 1.0% human serum albumin, percent of maximal response to GLP-1(7-36)NH2, read-out: hGLP-1R Emax, % ± SEM); 89.7% on hGIPR (HEK293, cAMP, 37° C., 0.1% bovine casein and 1.0% human serum albumin, percent of maximal response to GIP(1-42)NH2, read-out: hGIPR Emax, % ± SEM). The EC50 at hGLP-1R (37° C., read-out: hGLP-1R EC50, nM (SEM, n)) is 0.123 nM; on hGCGR (37° C., 0.1% bovine casein (no human serum albumin), geometric mean, read-out: hGCGR EC50, nM (SEM, n)), over 9950 nM; at hGCGR (37° C., 0.1% bovine casein and 1.0% human serum albumin, geometric mean (SEM, n), read-out: hGCGR EC50, nM (SEM, n)) it was over 9950 nM; on hGIPR (37° C., read-out: hGIPR EC50, nM (SEM, n)) it was 0.00964 nM.

These data come from patent publication US20230265151A1, “GIP/GLP1 CO-AGONIST COMPOUNDS” (priority 2020, published 2023).
